This note sets out measurements from patent US20210290597A1, “METHOD OF TREATING A CONDITION ASSOCIATED WITH NEURODEGENERATION USING INHIBITORS OF OAT3” (Neuropore Therapies, Inc., priority 2018, published 2021).

For experiment [1], the target named is T1, human transporter OATP1B3 (Homo sapiens, UniProt Q9NPD5).
T1 construct: expressed in transfected cells; host or cells: MDCK-II
T1 sequence (Q9NPD5 1-702): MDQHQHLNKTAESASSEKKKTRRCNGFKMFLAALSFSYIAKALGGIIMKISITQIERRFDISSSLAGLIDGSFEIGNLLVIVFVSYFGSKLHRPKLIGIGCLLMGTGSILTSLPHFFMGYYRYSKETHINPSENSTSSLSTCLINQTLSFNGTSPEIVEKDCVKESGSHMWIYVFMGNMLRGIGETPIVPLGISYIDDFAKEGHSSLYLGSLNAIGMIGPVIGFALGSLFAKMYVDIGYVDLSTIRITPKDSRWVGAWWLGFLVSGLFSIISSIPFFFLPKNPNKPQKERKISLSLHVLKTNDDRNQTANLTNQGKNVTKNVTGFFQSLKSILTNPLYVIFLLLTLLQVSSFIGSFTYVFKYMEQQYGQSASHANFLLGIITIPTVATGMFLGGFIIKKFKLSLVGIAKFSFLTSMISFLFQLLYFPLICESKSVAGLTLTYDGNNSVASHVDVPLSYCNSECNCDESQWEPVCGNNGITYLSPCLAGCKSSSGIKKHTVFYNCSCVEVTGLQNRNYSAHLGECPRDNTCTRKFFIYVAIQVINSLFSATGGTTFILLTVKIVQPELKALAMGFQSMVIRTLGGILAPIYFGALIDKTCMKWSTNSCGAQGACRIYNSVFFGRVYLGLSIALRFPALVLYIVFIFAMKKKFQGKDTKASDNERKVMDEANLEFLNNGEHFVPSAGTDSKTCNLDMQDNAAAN
The experiment in a line: In vitro ion transport assay 1, OATP1B3. It counts as cell-based. Conditions: probe substrate 2 μM [3H]-CCK-8. The procedure: (§1) Compound 1 was studied in the concentration range of 0.1-100 μM for its potency against transport mediated by various transporter proteins. [table]

Experiment [2] deals with Translocator Protein (18 kDa) (TSPO). The experiment in a line: TSPO immunofluorescence in cortex, L61 ASYN transgenic mice, 3 month study. Format: in vivo. Conditions: 5 and 10 mg/kg i.p. daily, 3 months. The protocol:
Briefly, Compound 1 was injected into L61 ASYN transgenic mice and non-transgenic control mice (i.p., once daily) at doses of 5 and 10 mg/kg for 3 months (79 total mice, n=14-17 mice per treatment group). The vehicle control consisted of a solution containing 5% DMSO+20% Cremphor EL+0.9% normal saline. The baseline grip strength of mice was evaluated prior to starting treatments for the 3 month study, and then re-evaluated following 70 days of treatment with vehicle or Compound 1 (5 or 10 mg/kg, i.p. injection daily).
Neuroinflammation is associated with increased expression of the 18-kDa translocator protein (TSPO), which is a marker for inflammation and is present on the mitochondria of activated microglia, astroglia and macrophages (Crawshaw and Robertson 2017). The effects of Compound 1 on the levels of Translocator Protein (18 kDa) (TSPO) were assessed in both L61 ASYN transgenic and non-transgenic mice in the aforementioned 3 month administration study. At the end of the study, the mice were sacrificed, and immunofluoresence (IF) detection of TSPO were assessed in the harvested brain tissues.
The harvested brain tissues were fixed (drop fixed in 4% paraformaldehyde), sectioned using a vibratome, and representative sections were assessed for TSPO with standard immunofluorescence (IF) staining. […]

For the next experiment, the target named is T2, human transporter MATE1 (Homo sapiens, UniProt Q96FL8).
T2 construct: expressed in transfected cells; host or cells: MDCK-II
T2 sequence (Q96FL8 1-570): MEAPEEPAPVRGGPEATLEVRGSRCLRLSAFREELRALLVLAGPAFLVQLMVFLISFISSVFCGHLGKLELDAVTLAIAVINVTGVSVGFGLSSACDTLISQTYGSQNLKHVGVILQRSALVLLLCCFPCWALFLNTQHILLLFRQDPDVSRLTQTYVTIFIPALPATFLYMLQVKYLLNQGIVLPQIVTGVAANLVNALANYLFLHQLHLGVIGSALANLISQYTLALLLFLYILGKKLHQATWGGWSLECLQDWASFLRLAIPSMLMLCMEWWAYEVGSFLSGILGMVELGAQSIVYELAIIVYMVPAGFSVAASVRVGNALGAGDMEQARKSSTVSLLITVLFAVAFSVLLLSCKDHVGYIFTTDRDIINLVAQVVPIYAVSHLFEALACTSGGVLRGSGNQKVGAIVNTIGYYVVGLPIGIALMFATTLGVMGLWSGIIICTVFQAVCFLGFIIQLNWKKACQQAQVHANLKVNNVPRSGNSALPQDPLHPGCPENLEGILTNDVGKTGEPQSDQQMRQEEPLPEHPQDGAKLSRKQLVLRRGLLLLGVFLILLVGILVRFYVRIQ
The experiment in a line: In vitro ion transport assay 1, MATE1. It counts as cell-based. Conditions: probe substrate 10 μM [14C]-metformin. The protocol:
as §1

Structures are written as SMILES.

`O=S(=O)(c1ccc(-n2cn[nH]c2=S)cc1)c1ccc(Cl)c(C(F)(F)F)c1` [Compound 1, 4-(4-((4-chloro-3-(trifluoromethyl)phenyl)sulfonyl)phenyl)-2,4-dihydro-3H-1,2,4-triazole-3-thione]: the IC50 in experiment [1] stood at 51.2 µM; against human transporter MATE1 it was 30.3 µM. In experiment [2], the “levels of TSPO in cortex vs vehicle control” value is recorded as “significantly decreased”.
